The values that follow come from patent publication US8552032B2, “Bicyclic derivatives useful as inhibitors of DPP-1” (Janssen Pharmaceutica NV, priority 2009, dated 2013).

T1 sequence (P53634 25-463): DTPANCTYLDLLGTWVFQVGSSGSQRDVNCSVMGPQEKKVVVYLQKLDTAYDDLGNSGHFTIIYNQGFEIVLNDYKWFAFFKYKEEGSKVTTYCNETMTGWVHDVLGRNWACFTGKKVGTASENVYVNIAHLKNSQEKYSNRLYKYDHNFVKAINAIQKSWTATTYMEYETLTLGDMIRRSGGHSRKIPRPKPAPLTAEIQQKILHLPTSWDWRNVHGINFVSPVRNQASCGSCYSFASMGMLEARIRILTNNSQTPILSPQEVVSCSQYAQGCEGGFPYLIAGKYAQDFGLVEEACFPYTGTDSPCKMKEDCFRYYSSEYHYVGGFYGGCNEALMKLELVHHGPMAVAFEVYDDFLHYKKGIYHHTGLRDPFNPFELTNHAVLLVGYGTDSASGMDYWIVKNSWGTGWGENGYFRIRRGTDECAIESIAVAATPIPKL

This assay concerns the target T1, recombinant human DPP-1 (Cathepsin C) (Homo sapiens, UniProt P53634).
T1 construct: made in house
Nature of the assay: DPP-1 Inhibition Assay (in vitro), fluorogenic substrate GR-AMC. The following applies: 0.15 nM DPP-1, 10 uM GR-AMC, pH 7.0, room temperature; average value where tested multiple times. Type of assay: biochemical. As to the method:
Test compounds were assessed for DPP-1 (Cathepsin C) inhibitory activity using a fluorogenic substrate, GR-AMC (Glycine-Arginine-amino-4-methylcoumarin, Bachem, 1-1215). The amount of amino-methylcoumarin released is proportional to the DPP-1 activity, and the reaction is monitored kinetically with a Molecular Devices plate reader using black 96-well plates.
All compounds were tested under room temperature conditions. The assay buffer consisted of 50 mM HEPES, pH 7.0, 100 mM NaCl, 2 mM glutathione (GSH), and 0.002% TWEEN 20. GSH and TWEEN 20 were added to the buffer fresh daily. Just prior to use, an in-house preparation of recombinant human DPP-1 (240 μM stock, MW 49.6 kD) was diluted 600-fold in assay buffer containing fresh 2 mM dithiothreitol (DTT) to activate the enzyme, then diluted into assay buffer (without DTT) 133-fold for a DPP-1 working solution of 3 nM. Test compounds were diluted in DMSO for 20× their final assay concentrations.
Additions to a 96-well black Costar 3915 plates were as follows: 90 μL of 11 μM GR-AMC, 5 μL test compound (followed by mixing), and 5 μL 3 nM DPP1 to start the reaction. Fluorescent reactions were monitored kinetically at 360 nm excitation, 440 nm emission on a Molecular Devices Spectramax XPS reader. The Softmax Pro software of the reader determined the initial velocity of the selected data (the first 3-5 minutes of the reaction), and the best linear regression fit of the initial kinetic data. Final assay conditions were 0.15 nM DPP-1, 10 uM GR-AMC, 50 mM HEPES, pH 7.0, 100 mM NaCl, 2 mM GSH, 0.002% TWEEN 20, 1 uM DTT, 5.0% DMSO. Initial velocity rates were plotted vs. test compound concentration by use of a four-parameter logistics equation (nonlinear regression, sigmoidal dose-response (variable slope), with fixed Hill (1.0) using GraphPad Prism® software for determination of DPP-1 IC50. Within-run assay coefficient of variation (CV) was generally <10%; between-run CV <20%.
Representative compounds of the present invention were tested according to the procedure as described above, with results as listed in Table 12, below.
A word on the IC50: it is the concentration that gives 50% inhibition. Consider `CC[C@H](N)C(=O)NCCCc1cc2cc(C(=O)Nc3cnc4ccccc4c3)ccc2o1` [Compound 64], for which the IC50 came out at 350 nM.

In the case of `CC[C@H](N)C(=O)NCCCc1cc2cc(C(=O)Nc3cccc4cnccc34)ccc2o1` [Compound 65], the half-maximal inhibitory concentration (IC50) was 480 nM.

`CC[C@H](N)C(=O)NCCCc1cc2cc(C(=O)Nc3cccc4cccnc34)ccc2o1` [Compound 66]: the IC50 came out at 910 nM.

With `CC[C@H](N)C(=O)NCCCc1cc2cc(C(=O)Nc3ccc4ncccc4c3)ccc2o1` [Compound 67], the IC50 turned out to be 200 nM.

Turning to `CC[C@H](N)C(=O)NCCCc1cc2cc(C(=O)Nc3cccc4ccncc34)ccc2o1` [Compound 68], the half-inhibitory concentration (IC50) turned out to be 710 nM.

As to `CC[C@H](N)C(=O)NCCCc1cc2cc(C(=O)N3CCCc4ccccc43)ccc2o1` [Compound 71], the half-inhibitory concentration (IC50) turned out to be 2600 nM.

Regarding `CC[C@H](N)C(=O)NCCCc1cc2cc(C(=O)Nc3ccc4[nH]cnc4c3)ccc2o1` [Compound 72], the IC50 is 2400 nM.

On to `CC[C@H](N)C(=O)NCCCc1cc2cc(C(=O)NC3CCNc4ccccc43)ccc2o1` (stereo partly drawn) [Compound 73], for which the IC50 amounted to 1800 nM.

Take `CC[C@H](N)C(=O)NCCCc1cc2cc(C(=O)O)ccc2o1` [Compound 74]: the IC50 is above 10000 nM.

On to `CC[C@H](N)C(=O)NCCCc1cc2cc(C(=O)Nc3ccc(C)cc3)ccc2[nH]1` [Compound 75], for which the 50% inhibitory concentration (IC50) was 1100 nM.

On to `CC[C@H](N)C(=O)NCCCc1cc2cc(C(=O)Nc3ccc(OC)cc3)ccc2[nH]1` [Compound 77], for which the IC50 was 350 nM.

As to `CC[C@H](N)C(=O)NCCCc1cc2cc(C(=O)Nc3ccc(C(C)(C)C)cc3)ccc2[nH]1` [Compound 78], the IC50 came out at 910 nM.

For the molecule `CC[C@H](N)C(=O)NCCCc1cc2cc(C(=O)Nc3ccc(F)cc3)ccc2[nH]1` [Compound 79], the IC50 was determined as 1300 nM.

Consider `CC[C@H](N)C(=O)NCCCc1cc2cc(C(=O)Nc3ccc(C(C)C)cc3)ccc2[nH]1` [Compound 80], for which the concentration for half-maximal inhibition (IC50) was 680 nM.

Regarding `CC[C@H](N)C(=O)NCCCc1cc2cc(C(=O)Nc3ccc(F)c(F)c3)ccc2[nH]1` [Compound 81], the IC50 was 790 nM.

Take `CC[C@H](N)C(=O)NCCCc1cc2cc(C(=O)Nc3ccc(C)c(C)c3)ccc2[nH]1` [Compound 83]: the half-maximal inhibitory concentration (IC50) stood at 560 nM.

For `CC[C@H](N)C(=O)NCCCc1cc2cc(C(=O)N3CCc4ccccc4C3)ccc2o1` [Compound 84], the 50% inhibitory concentration (IC50) was 1000 nM.

Consider `CC[C@H](N)C(=O)NCCCc1cc2cc(C(=O)Nc3cccc4[nH]cnc34)ccc2o1` [Compound 85], for which the IC50 came to 2400 nM.

With `CC[C@H](N)C(=O)NCCCc1cc2cc(C(=O)Nc3ccc4c(c3)S(=O)(=O)C=C4)ccc2o1` [Compound 86], the half-inhibitory concentration (IC50) was determined as 1000 nM.

Consider `CC[C@H](N)C(=O)NCCCc1cc2cc(C(=O)Nc3ccccc3F)ccc2[nH]1` [Compound 87], for which the IC50 stood at 2600 nM.

On to `CC[C@H](N)C(=O)NCCCc1cc2cc(C(=O)Nc3ccccc3OC)ccc2[nH]1` [Compound 88], for which the IC50 is 1000 nM.

For the molecule `CC[C@H](N)C(=O)NCCCc1cc2cc(C(=O)Nc3ccccc3C(C)C)ccc2[nH]1` [Compound 89], the IC50 was 1200 nM.

Regarding `CC[C@H](N)C(=O)NCCCc1cc2cc(C(=O)Nc3cccc(F)c3)ccc2[nH]1` [Compound 90], the IC50 worked out at 900 nM.

`CC[C@H](N)C(=O)NCCCc1cc2cc(C(=O)Nc3cccc(Cl)c3)ccc2[nH]1` [Compound 91]: the concentration for half-maximal inhibition (IC50) was determined as 800 nM.

For the molecule `CC[C@H](N)C(=O)NCCCc1cc2cc(C(=O)Nc3cccc(OC)c3)ccc2[nH]1` [Compound 92], the concentration for half-maximal inhibition (IC50) was 350 nM.

In the case of `CC[C@H](N)C(=O)NCCCc1cc2cc(C(=O)Nc3cccc(C)c3)ccc2[nH]1` [Compound 93], the concentration for half-maximal inhibition (IC50) is 920 nM.

Consider `CC[C@H](N)C(=O)NCCCc1cc2cc(C(=O)Nc3cc(OC)cc(OC)c3)ccc2o1` [Compound 94], for which the IC50 was 1500 nM.

Take `CC[C@H](N)C(=O)NCCCc1cc2cc(C(=O)Nc3c(C)cccc3C)ccc2o1` [Compound 95]: the IC50 turned out to be 430 nM.

In the case of `CC[C@H](N)C(=O)NCCCc1cc2cc(-c3cc(OC)cc(OC)c3)ccc2[nH]1` [Compound 96], the half-inhibitory concentration (IC50) was 370 nM.

In the case of `COc1ccc(NC(=O)c2ccc3[nH]c(CCCNC(=O)[C@@H](N)Cc4cccs4)cc3c2)cc1OC` [Compound 97], the concentration for half-maximal inhibition (IC50) came to 24 nM.

Regarding `CC[C@H](N)C(=O)NCCCc1cc2cc(Oc3ccccc3)ccc2[nH]1` [Compound 98], the IC50 was 480 nM.

For `CC[C@H](N)C(=O)NCCCc1cc2cc(Oc3ccc(OC)c(OC)c3)ccc2[nH]1` [Compound 99, (S)-2-amino-N-(3-(5-(3,4-dimethoxyphenoxy)-1H-indol-2-yl)propyl)butanamide], the IC50 amounted to 420 nM.

With `CC[C@H](N)C(=O)NCCCc1cc2cc(-c3ccccc3)ccc2[nH]1` [Compound 100], the concentration for half-maximal inhibition (IC50) stood at 520 nM.

Turning to `CC[C@H](N)C(=O)NCCCc1cc2cc(-c3ccc(F)cc3)ccc2[nH]1` [Compound 101], the IC50 turned out to be 790 nM.

For the molecule `CC[C@H](N)C(=O)NCCCc1cc2cc(-c3ccc(C(F)(F)F)cc3)ccc2[nH]1` [Compound 102], the IC50 was found to be 710 nM.

`CC[C@H](N)C(=O)NCCCc1cc2cc(-c3cccc(C(N)=O)c3)ccc2[nH]1` [Compound 103]: the IC50 was 390 nM.

For the molecule `CC[C@H](N)C(=O)NCCCc1cc2cc(-c3ccc(OC)cc3)ccc2[nH]1` [Compound 104], the IC50 was determined as 340 nM.

Take `CC[C@H](N)C(=O)NCCCc1cc2cc(-c3ccc(OC(F)(F)F)cc3)ccc2[nH]1` [Compound 105]: the half-maximal inhibitory concentration (IC50) was determined as 860 nM.

As to `COc1ccc(NC(=O)c2ccc3[nH]c(CCCN(C)C(=O)[C@@H](N)Cc4cccs4)cc3c2)cc1OC` [Compound 106, (S)-2-(3-(2-amino-N-methyl-3-(thiophen-2-yl)propanamido)propyl)-N-(3,4-dimethoxyphenyl)-1H-indole-5-carboxamide], the IC50 amounted to 82 nM.

Take `CC[C@H](N)C(=O)N(C)CCCc1cc2cc(C(=O)Nc3ccc(OC)c(OC)c3)ccc2[nH]1` [Compound 107]: the IC50 worked out at 9000 nM.

Regarding `CC[C@H](N)C(=O)NCCCc1cc2cc(-c3cc(C(F)(F)F)cc(C(F)(F)F)c3)ccc2[nH]1` [Compound 109], the IC50 stood at 760 nM.

As for `CC[C@H](N)C(=O)NCCCc1cc2cc(-c3ccc(C(N)=O)cc3)ccc2[nH]1` [Compound 111], the IC50 was determined as 690 nM.

In the case of `CC[C@H](N)C(=O)NCCCc1cc2cc(-c3ccc4c(c3)OCO4)ccc2[nH]1` [Compound 112], the IC50 worked out at 520 nM.

As for `CC[C@H](N)C(=O)NCCCc1cc2cc(-c3cccc(S(N)(=O)=O)c3)ccc2[nH]1` [Compound 113], the IC50 was found to be 700 nM.

On to `CC[C@H](N)C(=O)NCCCc1cc2cc(-c3ccncc3)ccc2[nH]1` [Compound 114], for which the 50% inhibitory concentration (IC50) amounted to 670 nM.

Turning to `CC[C@H](N)C(=O)NCCCc1cc2cc(-c3ccccc3C(N)=O)ccc2[nH]1` [Compound 116], the IC50 was 2000 nM.

On to `COc1ccc(NC(=O)c2ccc3[nH]c(CCCNC(=O)[C@@H](N)Cc4nccs4)cc3c2)cc1OC` [Compound 117, (S)-2-(3-(2-amino-3-(thiazol-2-yl)propanamido)propyl)-N-(3,4-dimethoxyphenyl)-1H-indole-5-carboxamide], for which the IC50 amounted to 81 nM.

With `CCN(CCCc1cc2cc(C(=O)Nc3ccc(OC)c(OC)c3)ccc2[nH]1)C(=O)[C@@H](N)Cc1cccs1` [Compound 118], the 50% inhibitory concentration (IC50) is 370 nM.
